# According to patent publication US20240293314A1, “COMPOSITION FOR PARTICLE-MEDIATED TRANSPORT OF A DISSOLVED ACTIVE AGENT INTO HAIR FOLLICLES” (Charité – Universitätmedizin Berlin, priority 2021, published 2024):
# Key:
# [1] = assay type: in vitro ADME, porcine; conditions: pig, 1 h, 0.003 % w/w
# Description: Three particle-free and three particle-containing formulations were prepared, each containing 0.003% F (dissolved in dispersion medium), and the penetration of F into hair follicles (HF) was studied.
# Fluorescein (0.003% w/w) was added to dispersion media that contained no particles (water, TPGS-solution (1% w/w) or ethanol (96% v/v)) and was added to dispersion media that contained particles (1. curcumin nanocrystals (5% w/w dispersed in TPGS solution (1% w/w)—particle size was 257 nm, polydispersity index 0.26 determined by photon correlation spectroscopy); 2. quercetin nanocrystals (5% w/w dispersed in TPGS solution (1% w/w)—particle size was 580 nm, polydispersity index 0.36, determined by photon correlation spectroscopy); 3. Lipid nanoparticles (10% w/w dispersed in TPGS solution (1% w/w)—particle size was 195 nm, polydispersity index 0.09, determined by photon correlation spectroscopy).
# The formulations (50 μl on a skin areal of 4 cm^2) were applied on fresh porcine ears (ventral side, massage for 60 s, penetration time 1 h at 32° C.). Skin biopsies (Ø 15 mm) were obtained from the treated skin areas from which skin sections (40 μm, 100 sections/biopsy) were prepared. The skin sections and the hair follicle sections were analyzed by epifluorescence microscopy. Images were taken and the penetration depth of the fluorescein was directly measured (n=3). […]
# [2] = assay type: in vitro ADME
# From the text: FIG. 1: Confocal microscopic image of a skin section with hair follicle after topical application of fluorescein natrium salt (green fluorescent dye) dissolved in dispersion medium together with a caffeine nanosuspension.
# Particle-containing formulations were applied as dispersions (particles in a liquid or semi-solid dispersion medium). Besides the particles, the dispersion medium also contained dissolved molecules, name the fluorescent molecule fluorescein, which is an organic compound soluble in water and alcohol.
structure (smiles),measurement,setting,value
"O=C1OC2(c3ccc(O)cc3Oc3cc(O)ccc32)c2ccccc21 [F, Fluorescein]",penetration depth with particles compared to the particle-free formulations,[1],> 160%
same,penetration into the hair follicles,[2],no efficient penetration into the hair follicles
